# Measurements published in patent publication US9643992B2, “Two crystal forms of ginsenoside C-K and method for preparing same” (Zhejiang Hisun Pharmaceutical Co., Ltd., priority 2012, dated 2017).
# Assay: Thermostability test of crystal forms
# Format: physicochemical
# Details: solid sample placed at 80° C. for 1 week; change of crystal form detected
# Experimental: 3. Thermostability Test The samples of crystal form D, crystal form H and crystal form G were each placed for 1 week at 80° C., and subsequently the changes of the crystal form were detected.
row,Structure (SMILES),The crystal form after test
1,"CC(C)=CCC[C@](C)(O[C@@H]1O[C@H](CO)[C@@H](O)[C@H](O)[C@H]1O)[C@H]1CC[C@]2(C)[C@@H]1[C@H](O)C[C@@H]1[C@@]3(C)CC[C@H](O)C(C)(C)[C@@H]3CC[C@]12C [crystal form D, ginsenoside C-K]",no change was observed
2,"CC(C)=CCC[C@](C)(O[C@@H]1O[C@H](CO)[C@@H](O)[C@H](O)[C@H]1O)[C@H]1CC[C@]2(C)[C@@H]1[C@H](O)C[C@@H]1[C@@]3(C)CC[C@H](O)C(C)(C)[C@@H]3CC[C@]12C [crystal form G, ginsenoside C-K]",changed to crystal form D
3,"CC(C)=CCC[C@](C)(O[C@@H]1O[C@H](CO)[C@@H](O)[C@H](O)[C@H]1O)[C@H]1CC[C@]2(C)[C@@H]1[C@H](O)C[C@@H]1[C@@]3(C)CC[C@H](O)C(C)(C)[C@@H]3CC[C@]12C [crystal form H, ginsenoside C-K]",no change was observed
